“Also recorded” adds a separate entry of the source.
Columns and labels:
[1] = target: T1, recombinant human sialidase NEU3 (Homo sapiens, UniProt Q9UQ49); experiment: NEU3-catalyzed L-TGF-β1 activation (TGF-β1 release/concentration assay, active TGF-β1 ELISA); type: biochemical; conditions: recombinant human NEU3, L-TGF-β1, PBS pH 6.9, 2 hours 37° C.; read-out: IC50, inhibits human NEU3 in the TGF-β1 concentration (release) assay
T1 construct: purchased Origene TP316537
T1 sequence (Q9UQ49 1-428): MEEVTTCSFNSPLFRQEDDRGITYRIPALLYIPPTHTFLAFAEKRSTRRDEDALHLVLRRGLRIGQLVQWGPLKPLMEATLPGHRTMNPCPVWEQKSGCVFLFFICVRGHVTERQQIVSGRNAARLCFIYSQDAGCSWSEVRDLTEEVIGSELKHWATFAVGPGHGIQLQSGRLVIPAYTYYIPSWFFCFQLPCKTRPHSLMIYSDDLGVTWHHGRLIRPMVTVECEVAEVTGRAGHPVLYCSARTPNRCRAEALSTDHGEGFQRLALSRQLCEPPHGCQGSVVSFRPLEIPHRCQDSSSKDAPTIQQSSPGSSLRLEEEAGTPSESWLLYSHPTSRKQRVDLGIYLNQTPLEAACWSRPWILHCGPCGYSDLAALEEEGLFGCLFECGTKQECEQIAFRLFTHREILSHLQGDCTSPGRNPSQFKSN
Experimental: To determine if NEU3 can cause latent transforming growth factor-β1 (L-TGF-β1) to release active TGF-β1, 200 ng/ml recombinant human L-TGF-β1 (299-LT/CF, R&D Systems) was incubated with varying concentrations of recombinant human NEU3 (TP316537, Origene) in a total volume of 100 μl of PBS pH 6.9 in a 96-well microplate (651261, Greiner Bio-one, Monroe, NC). The microplates were covered with aluminum foil and incubated at 37° C. for 2 hours. Following incubation, the reaction mixtures were assayed using a TGF-β1 ELISA kit (DY240, R&D Systems) following the manufacturer's protocol with the exception that the reaction mixtures were not processed for acid treatment, so as to measure only active TGF-β1 and not total TGF-β1. The absorbance was read with a SynergyMX plate reader (BioTek, Winooski, VT).
To determine the ability of compounds 1-31 to inhibit human recombinant NEU3 in-vitro, compounds were dissolved in 5 ml water to 20 mM in 15 ml tubes (89039-664, VWR, Radnor, PA), with the exception that 4-hydroxypyridine-2-carboxylic acid, nicotinic acid, and 4-aminopicolinic acid were dissolved in 50 μl DMSO to 2 M, and this was then added to 4.95 ml of water to make a 20 mM stock, and O-(tetrahydro-2H-pyran-2yl) hydroxylamine and salicylic acid were dissolved in 50 μl methanol to 2 M, and this was then added to 4.95 ml of water to make a 20 mM stock. All stocks were stored at 4° C. and used within 2 weeks of preparation. A 10-fold dilution series of the compounds starting at 2 mM were made in PBS pH 6.9 in 1.7 ml clear microtubes (22-281, Genesee Scientific). 100 μl of diluted compound was added to the well of a 96 well plate and then 50 μl of 400 ng/ml recombinant human sialidase NEU3 (TP316537, Origene) in PBS pH 6.9 was added to each well (50 μl PBS pH 6.9 for the control), and the plate was incubated for 30 minutes at 37° C. 50 μl of 800 ng/ml L-TGF-β1 (299-LT/CF, R&D Systems) in PBS pH 6.9 was then added to the well. The plate was covered with aluminum foil and incubated for 2 hours at 37° C., and released active TGF-β1 was assayed as described above.

[2] = system: NEU3 enzymic activity, hepatic steatosis and weight gain in mice; conditions: oral administration; cited from earlier work
[3] = system: C57BL/6 mice on regular or high fat diet; experiment: High fat diet C57BL/6 mice treated with intraperitoneal DANA; type: in vivo, mouse
Experimental: 12 week old male C57BL/6 mice (#000664; Jackson Laboratory, Farmington, CT) were fed standard rodent chow (15% kcal fat, Teklad 8604, Envigo, Madison WI) and 12-16 week old male C57BL/6 mice (#380050; Jackson) were fed a high fat diet (60% kcal fat, D12492 formula; Research Diets New Brunswick, NJ). Mice were placed on the specified diets for 6 weeks before the start of treatment. To determine if the sialidase inhibitor DANA (#252926-10MG, Millipore-Sigma, Burlington, MA) decreases high-fat diet induced weight gain, mice were treated every 48 hours with intraperitoneal injections of phosphate-buffered saline (PBS) or DANA at 10 mg/kg in PBS, formulated as 4 mg/ml in PBS. Mice were maintained on their specific diets and received injections every 48 hours for 5 weeks (35 days). Animals were housed with a 12-hour/12-hour light-dark cycle (lights on at 7 AM) with free access to food and water. All injections were performed between 9:00 and 11:00 AM. This protocol was done with specific approval of the Texas A&M University institutional animal care and use committee.
To determine the amount of steatosis (accumulation of fat in the cells of the liver), frozen sections were prepared by placing freshly isolated pieces of liver in Surgipath frozen section compound, freezing on dry ice, and storing at −80° C. 10-12 μm cryosections of liver were placed on glass slides and were stained with oil red O to detect the accumulation of lipids as described in Mehlem, A., et al., Imaging of neutral lipids by oil red O for analyzing the metabolic status in health and disease, Nat. Protoc., 2013. 8(6): p. 1149-54.
As in Example 9, mice were maintained on their specific diets and received injections of buffer or DANA every 48 hours for 5 weeks (35 days). Following euthanasia, liver tissue was removed, fixed, and then sectioned as described above.
This situation leads to elevated levels of glucose in the blood system, and following an increase in blood glucose (such as after a meal or an injection of glucose), the body takes longer than normal to reduce blood glucose levels. To determine if DANA could reduce blood glucose levels, on day 33 of the experiment described in […], mice were fasted for 16 hours starting at 5 PM. On day 34, mice received an IP injection of 1.5 g/kg glucose (Amresco, Solon, OH) formulated as 525 mg/ml in PBS. Blood glucose levels were measured before glucose administration (0 minutes), and at 20, 40, 60, 90, and 120 minutes after the injection using commercial blood glucose test strips (CVS Pharmacy, Woonsocket, RI).
Obesity is associated with increased size (weight) of many organs, including white fat and liver. To determine if the sialidase inhibitor DANA could prevent a high fat diet-induced increase in organ weights, at day 35 of the experiment described in Example 9, following euthanasia, organs including epididymal white adipose and inter-scapular brown adipose tissue, liver, spleen, lungs, and kidneys were weighed.

[4] = system: NEU3-induced IL-6 production by human PBMC; experiment: NEU3-induced extracellular IL-6 accumulation by human PBMC (IL-6 concentration assay); type: cell-based; conditions: NEU3, serum-free medium, 48 hours
Experimental: Human peripheral blood was collected from healthy volunteers who gave written consent and with specific approval from the Texas A&M University human subjects review board. Peripheral blood mononuclear cells (PBMC) were isolated from the blood using Ficoll-Paque density gradient centrifugation (95021-205, GE Healthcare, Cincinnati, OH) following the manufacture's protocol. PBMC were cultured at […] in 96-well flat bottom tissue culture plates (type 62406-081; […] Louis, MO)) in a final volume of 200 μl per well. […] The sialidases were diluted in 100 μl of the same medium the cells were in, and added to 100 μl of cells at 1×10^5 cells/ml to make the total volume in a well 200 μl with 1×10^4 cells/well. The cells were then incubated at 37° C. in a humidified incubator with 5% CO2. The culture supernatants were collected after two or five days and assayed using an IL-6 ELISA kit (430501, Biolegend, San Diego, CA) following the manufacturer's protocol, reading absorbance with a SynergyMX plate reader (BioTek, Winooski, VT). Statistics were analyzed using Prism software (Graphpad, La Jolla, CA). At least three different donors were used for each assay. […] IL-6 in the culture supernatant was then assayed as described above. At least three different donors were used for each assay.

[5] = HFD mice, DANA vs control HFD, day 35, FIG. 19

Row | Compound | IC50 [1] [nM] | HFD-induced weight gain [2] | NEU3 enzymic activity in the small intestine [2] | hepatic steatosis [2] | oil red O staining in the liver (neutral lipid accumulation) ([3]; HFD mice, DANA 10 mg/kg i.p. every 48 hours for 35 days, vs saline, FIG. 14) | F4/80 positive cells in the liver ([3]; HFD mice, DANA i.p. every 48 hours for 35 days, vs saline, FIG. 15) | high fat diet induced weight gain ([3]; HFD mice, DANA i.p. injections vs PBS, after 21 days of treatment, FIG. 16) | total glucose levels (AUC over 120 minutes) ([3]; HFD mice, DANA vs HFD control, FIG. 18) | blood glucose levels after glucose injection ([3]; HFD mice, DANA vs control HFD, at 60 minutes after 1.5 g/kg IP glucose, FIG. 17) | brown fat weight (percent of body weight) [3, 5] | white fat weight (percent of body weight) [3, 5] | weight of mice on regular chow ([3]; regular chow mice, DANA vs PBS injections) | organ weights ([3]; regular chow mice, DANA vs PBS, day 35, FIG. 19) | oil red O staining in the liver ([3]; regular diet mice, DANA 10 mg/kg i.p. every 48 hours for 35 days, vs saline) | F4/80 staining in the liver ([3]; regular diet mice, DANA i.p. every 48 hours for 35 days, vs saline) | fasting glucose levels or glucose levels after the glucose injection ([3]; standard chow mice, DANA vs PBS, FIG. 17) | IC50 [4] [nM]
1 | CC(=O)N[C@@H]1C(O)C=C(C(=O)O)O[C@H]1[C@H](O)[C@H](O)CO (stereo partly drawn) [Compound 1, DANA] | 250000 | attenuated | inhibited | attenuated | significant reduction | significant reduction | prevents weight gain; also recorded: significant reduction in weight gain | significantly lower | significantly lower | significantly lower | significantly lower | no effect; also recorded: no significant differences in weight | no significant differences in any organ weights | no significant difference | no significant difference | no significant differences | –
2 | CN1CCCCC1C(=O)O (stereo not drawn) [Compound 20, 1-methyl-2-piperidine carboxylic acid] | 500 | – | – | – | – | – | – | – | – | – | – | – | – | – | – | – | 30
